Experimental data reported in ChEMBL document CHEMBL1137040, “Estrone formate: a novel type of irreversible inhibitor of human steroid sulfatase” (Bioorg Med Chem Lett, 2004).

Molecular target: T1, Steryl-sulfatase (Homo sapiens, UniProt P08842)
T1 sequence (P08842 whole entry): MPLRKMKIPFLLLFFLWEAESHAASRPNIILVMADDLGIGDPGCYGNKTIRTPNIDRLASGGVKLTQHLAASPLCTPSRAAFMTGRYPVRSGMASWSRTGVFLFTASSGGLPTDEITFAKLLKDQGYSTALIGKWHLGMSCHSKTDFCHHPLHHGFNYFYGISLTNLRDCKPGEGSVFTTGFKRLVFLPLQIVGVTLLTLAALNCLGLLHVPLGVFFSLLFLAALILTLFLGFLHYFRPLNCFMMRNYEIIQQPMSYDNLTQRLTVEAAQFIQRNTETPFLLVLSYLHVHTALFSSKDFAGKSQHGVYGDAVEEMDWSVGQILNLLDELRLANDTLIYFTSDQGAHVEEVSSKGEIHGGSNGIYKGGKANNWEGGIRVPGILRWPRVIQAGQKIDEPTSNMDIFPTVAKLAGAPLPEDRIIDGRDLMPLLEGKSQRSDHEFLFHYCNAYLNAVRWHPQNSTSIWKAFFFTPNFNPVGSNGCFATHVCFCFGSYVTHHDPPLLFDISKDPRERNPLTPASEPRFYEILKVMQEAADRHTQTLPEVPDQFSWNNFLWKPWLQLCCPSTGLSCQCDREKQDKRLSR
Assay: Inhibition of purified human steroid sulfatase

Compound	IC50
O=COc1ccc2nc(C=C3C4CC5CC(C4)CC3C5)oc2c1	1.5 µM
Oc1ccc2nc(C=C3C4CC5CC(C4)CC3C5)oc2c1	0.26 µM
C[C@]12CC[C@H](OC=O)C=C1CCC1C2CC[C@]2(C)C(=O)CCC12 (stereo partly drawn)	> 10 µM
C[C@]12CC[C@@H]3c4ccc(OC(=O)NCc5ccccc5)cc4CCC3[C@@H]1CCC2=O (single isomer, unassigned)	> 50 µM
CC(C)(C)OC(=O)NCC(=O)Oc1ccc2c(c1)CCC1[C@@H]2CC[C@]2(C)C(=O)CC[C@@H]12 (single isomer, unassigned)	> 50 µM
C[C@]12CC[C@@H]3c4ccc(OC=O)cc4CCC3[C@@H]1CCC2=O (single isomer, unassigned)	0.42 µM
C[C@]12CC[C@@H]3c4ccc(OC(=O)CN)cc4CCC3[C@@H]1CCC2=O (single isomer, unassigned)	> 50 µM
C[C@]12CC[C@@H]3c4ccc(OC#N)cc4CCC3[C@@H]1CCC2=O (single isomer, unassigned)	> 50 µM
CC(=O)Oc1ccc2c(c1)CCC1[C@@H]2CC[C@]2(C)C(=O)CC[C@@H]12 (single isomer, unassigned)	> 50 µM
C[C@]12CC[C@@H]3c4ccc(OC(=N)S)cc4CCC3[C@@H]1CCC2=O (single isomer, unassigned)	> 50 µM
C[C@]12CC[C@@H]3c4ccc(OC(N)=O)cc4CCC3[C@@H]1CCC2=O (single isomer, unassigned)	> 50 µM
C[C@]12CC[C@@H]3c4ccc(OS(N)(=O)=O)cc4CCC3[C@@H]1CCC2=O (single isomer, unassigned) [EMATE]	0.05 µM
O=COc1ccccc1 [FORMIC ACID PHENYL ESTER]	> 30 µM
